Reference: patent US20230212319A1, “NOVEL ANTIGEN BINDING DOMAINS AND SYNTHETIC ANTIGEN RECEPTORS INCORPORATING THE SAME” (University of Southern California, priority 2020, published 2023)

Legend:
[1] = Flow cytometry of expanded CAR-T/SIR-T cells (Protein L staining, T cell surface markers); format: cell-based, human; settings: CAR-T and SIR-T cells expanded 7 days with 1 µM
Experimental: Cells were expanded in XVIVO medium under standard conditions in the presence of IL2 and CD3/CD28 beads in the absence or presence of Birinapant 1 µM for 7 days and. After 7 days, cells were analyzed by flow cytometry for expression of different cell surface markers.
Cells were pelleted and re-suspended in XVIVO-15 (Lonza) T-cell medium supplemented with PSA, 100 IU/ml recombinant human IL2 and Dynabeads Human T-Activator CD3/CD28 and 5% hAB serum.
The cells were analyzed by flow cytometery for expresson of SIR by staining with Protein L and for presence of different T cell markers.
After 13 days of culture, cells were counted and analyzed by flow cytometry.

[2] = test system: Nalm6 cells; experiment: Cytokine ELISA (IFNγ, TNFα, IL-2) after co-culture with Nalm6; format: cell-based; settings: T cells expanded 7 days with compound, co-cultured with Nalm6 48 h
Experimental: After 48 h, supernatant was collected and used for measurement of IFNγ, TNFα and IL-2 by ELISA.
Control T cells or SIR-T cells grown in regular flask or G-Rex 6-well plate were cultured with Nalm6-hGLuc 100 K/well/100 ul in 96-well plate U-bottom in XVIVO medium with no additional component. After 48 h co-culture, supernatant was collected and used for ELISA.
The supernatant from the different cell populations were tested for cytokine production upon co-culture with NALM6 cells.

[3] = test system: RAJI cells; experiment: T cell cytotoxicity against RAJI (Matador assay, Gluc); format: cell-based

SMILES: CC[C@H](NC(=O)[C@H](C)NC)C(=O)N1C[C@@H](O)C[C@H]1Cc1c(-c2[nH]c3cc(F)ccc3c2C[C@@H]2C[C@H](O)CN2C(=O)[C@H](CC)NC(=O)[C@H](C)NC)[nH]c2cc(F)ccc12 [Birinapant]
- CD4 cells [1]: decline
- CD62L cells [1]: increase
- proportion of CD8 cells [1]: increase
- IFNγ secretion [2]: no significant decrease
- IL2 secretion [2]: no significant decrease
- TNFα secretion [2]: no significant decrease
- non-specific killing by uninfected control T cells expanded in presence of SMAC mimetic ([3]; 100 nM or 1 µM, 16 days, RAJI-Gluc, 4 h): no effect
- cell killing of RAJI cells by SAR-T cells expanded in presence of SMAC mimetic ([3]; SAR SEQ ID NO: 7348 T cells expanded 16 days with 100 nM or 1 µM, E:T 0.25:1 and 0.5:1, 4 h): dose dependent increase
